Measured values as given in ChEMBL document CHEMBL5715954, “Silencing c-Myc translation as a therapeutic strategy through targeting PI3Kδ and CK1ε in hematological malignancies” (Blood, 2017).

What was measured:
Design in all cases: scale not given: the % may be the effect or the level left
[1] = target: CDK17/Cyclin-Y (Homo sapiens) (UniProt Q00537+Q8ND76); assay: Inhibition of human CDK17/cyclin Y assessed as enzyme activity at 1 uM using myelin basic protein as substrate preincubated for 20 mins followed by [gamma-33P]-ATP addition and measured after 120 mins by radiometric Hot-SpotSM Kinase assay relative to control; assay type: protein-complex assay
Chain of CDK17/Cyclin-Y (Homo sapiens) (Q00537 whole entry): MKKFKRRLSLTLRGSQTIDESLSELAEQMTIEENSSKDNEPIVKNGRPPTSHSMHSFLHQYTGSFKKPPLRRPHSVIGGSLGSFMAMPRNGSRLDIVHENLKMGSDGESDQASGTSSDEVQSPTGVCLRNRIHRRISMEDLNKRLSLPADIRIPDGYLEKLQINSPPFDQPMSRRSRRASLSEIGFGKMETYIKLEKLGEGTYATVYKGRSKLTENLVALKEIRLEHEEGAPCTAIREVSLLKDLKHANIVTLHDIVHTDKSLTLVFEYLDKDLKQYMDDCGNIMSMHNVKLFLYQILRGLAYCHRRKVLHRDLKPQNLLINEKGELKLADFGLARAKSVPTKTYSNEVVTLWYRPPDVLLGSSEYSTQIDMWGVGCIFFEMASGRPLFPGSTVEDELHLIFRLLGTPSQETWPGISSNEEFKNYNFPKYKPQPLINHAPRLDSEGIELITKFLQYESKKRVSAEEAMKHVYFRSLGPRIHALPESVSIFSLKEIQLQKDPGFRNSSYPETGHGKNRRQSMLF
Chain of CDK17/Cyclin-Y (Homo sapiens) (Q8ND76 2-341 partner limits assumed): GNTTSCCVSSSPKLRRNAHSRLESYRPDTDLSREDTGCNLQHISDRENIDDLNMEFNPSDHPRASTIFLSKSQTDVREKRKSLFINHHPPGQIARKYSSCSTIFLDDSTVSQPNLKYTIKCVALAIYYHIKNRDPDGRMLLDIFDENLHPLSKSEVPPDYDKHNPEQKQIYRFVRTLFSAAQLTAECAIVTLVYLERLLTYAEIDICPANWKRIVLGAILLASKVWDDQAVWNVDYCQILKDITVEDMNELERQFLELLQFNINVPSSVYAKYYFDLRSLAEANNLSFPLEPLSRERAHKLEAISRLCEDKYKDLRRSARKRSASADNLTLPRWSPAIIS

[2] = target: Ephrin type-A receptor 7 (Homo sapiens) (UniProt Q15375); assay: Inhibition of human EPHA7 assessed as enzyme activity at 1 uM using poly[Glu:Tyr] (4:1) as substrate preincubated for 20 mins followed by [gamma-33P]-ATP addition and measured after 120 mins by radiometric Hot-SpotSM Kinase assay relative to control
[3] = target: T1, Ephrin type-B receptor 2 (Homo sapiens) (UniProt P29323); assay: Inhibition of human EPHB2 assessed as enzyme activity at 1 uM using poly[Glu:Tyr] (4:1) as substrate preincubated for 20 mins followed by [gamma-33P]-ATP addition and measured after 120 mins by radiometric Hot-SpotSM Kinase assay relative to control
T1 sequence (whole entry): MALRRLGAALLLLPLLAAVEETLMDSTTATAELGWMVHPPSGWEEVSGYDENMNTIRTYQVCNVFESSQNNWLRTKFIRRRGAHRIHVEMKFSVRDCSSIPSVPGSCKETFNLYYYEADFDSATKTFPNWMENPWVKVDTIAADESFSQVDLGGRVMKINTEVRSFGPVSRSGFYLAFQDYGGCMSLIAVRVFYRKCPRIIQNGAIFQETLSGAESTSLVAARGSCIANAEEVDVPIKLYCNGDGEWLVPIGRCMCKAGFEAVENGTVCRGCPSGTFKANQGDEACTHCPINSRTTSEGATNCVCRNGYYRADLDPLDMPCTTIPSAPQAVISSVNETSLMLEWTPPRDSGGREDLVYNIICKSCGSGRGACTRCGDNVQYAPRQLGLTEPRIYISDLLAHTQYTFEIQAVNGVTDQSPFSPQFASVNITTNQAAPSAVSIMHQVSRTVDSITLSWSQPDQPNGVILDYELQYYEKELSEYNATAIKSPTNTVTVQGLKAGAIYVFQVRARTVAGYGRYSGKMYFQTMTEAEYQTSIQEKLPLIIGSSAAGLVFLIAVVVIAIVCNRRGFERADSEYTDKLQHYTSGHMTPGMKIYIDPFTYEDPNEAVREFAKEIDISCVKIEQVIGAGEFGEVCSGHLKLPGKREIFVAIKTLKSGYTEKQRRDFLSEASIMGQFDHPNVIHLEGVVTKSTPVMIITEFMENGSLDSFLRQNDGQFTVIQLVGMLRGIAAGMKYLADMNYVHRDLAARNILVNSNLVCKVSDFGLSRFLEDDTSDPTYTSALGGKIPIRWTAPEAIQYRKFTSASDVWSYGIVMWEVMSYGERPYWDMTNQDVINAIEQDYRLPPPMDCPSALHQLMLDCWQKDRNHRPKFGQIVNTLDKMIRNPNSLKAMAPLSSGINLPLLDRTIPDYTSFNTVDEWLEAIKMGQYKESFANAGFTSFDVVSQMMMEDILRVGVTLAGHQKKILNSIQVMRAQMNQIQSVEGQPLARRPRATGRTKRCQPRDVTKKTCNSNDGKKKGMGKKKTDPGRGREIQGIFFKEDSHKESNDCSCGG

[4] = target: Dual specificity mitogen-activated protein kinase kinase 1 (Homo sapiens) (UniProt Q02750); assay: Inhibition of human MEK1 assessed as enzyme activity at 1 uM using ERK2 (K52R) as substrate preincubated for 20 mins followed by [gamma-33P]-ATP addition and measured after 120 mins by radiometric Hot-SpotSM Kinase assay relative to control
Chain of Dual specificity mitogen-activated protein kinase kinase 1 (Homo sapiens) (Q02750 whole entry): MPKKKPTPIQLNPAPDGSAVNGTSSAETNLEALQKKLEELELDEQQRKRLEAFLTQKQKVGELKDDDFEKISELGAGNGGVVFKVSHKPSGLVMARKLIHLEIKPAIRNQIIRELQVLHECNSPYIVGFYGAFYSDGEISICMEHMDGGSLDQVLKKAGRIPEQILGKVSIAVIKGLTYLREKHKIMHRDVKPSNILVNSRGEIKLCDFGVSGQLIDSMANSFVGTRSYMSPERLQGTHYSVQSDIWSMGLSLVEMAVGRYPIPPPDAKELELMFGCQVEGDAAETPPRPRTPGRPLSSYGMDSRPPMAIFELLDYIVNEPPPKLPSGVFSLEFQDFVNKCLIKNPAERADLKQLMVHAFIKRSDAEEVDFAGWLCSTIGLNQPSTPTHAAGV

[5] = target: Myosin light chain kinase, smooth muscle (Homo sapiens) (UniProt Q15746); assay: Inhibition of human MLCK assessed as enzyme activity at 1 uM using KKLNRTLSFAEPG as substrate preincubated for 20 mins followed by [gamma-33P]-ATP addition and measured after 120 mins by radiometric Hot-SpotSM Kinase assay relative to control
Chain of Myosin light chain kinase, smooth muscle (Homo sapiens) (Q15746 whole entry): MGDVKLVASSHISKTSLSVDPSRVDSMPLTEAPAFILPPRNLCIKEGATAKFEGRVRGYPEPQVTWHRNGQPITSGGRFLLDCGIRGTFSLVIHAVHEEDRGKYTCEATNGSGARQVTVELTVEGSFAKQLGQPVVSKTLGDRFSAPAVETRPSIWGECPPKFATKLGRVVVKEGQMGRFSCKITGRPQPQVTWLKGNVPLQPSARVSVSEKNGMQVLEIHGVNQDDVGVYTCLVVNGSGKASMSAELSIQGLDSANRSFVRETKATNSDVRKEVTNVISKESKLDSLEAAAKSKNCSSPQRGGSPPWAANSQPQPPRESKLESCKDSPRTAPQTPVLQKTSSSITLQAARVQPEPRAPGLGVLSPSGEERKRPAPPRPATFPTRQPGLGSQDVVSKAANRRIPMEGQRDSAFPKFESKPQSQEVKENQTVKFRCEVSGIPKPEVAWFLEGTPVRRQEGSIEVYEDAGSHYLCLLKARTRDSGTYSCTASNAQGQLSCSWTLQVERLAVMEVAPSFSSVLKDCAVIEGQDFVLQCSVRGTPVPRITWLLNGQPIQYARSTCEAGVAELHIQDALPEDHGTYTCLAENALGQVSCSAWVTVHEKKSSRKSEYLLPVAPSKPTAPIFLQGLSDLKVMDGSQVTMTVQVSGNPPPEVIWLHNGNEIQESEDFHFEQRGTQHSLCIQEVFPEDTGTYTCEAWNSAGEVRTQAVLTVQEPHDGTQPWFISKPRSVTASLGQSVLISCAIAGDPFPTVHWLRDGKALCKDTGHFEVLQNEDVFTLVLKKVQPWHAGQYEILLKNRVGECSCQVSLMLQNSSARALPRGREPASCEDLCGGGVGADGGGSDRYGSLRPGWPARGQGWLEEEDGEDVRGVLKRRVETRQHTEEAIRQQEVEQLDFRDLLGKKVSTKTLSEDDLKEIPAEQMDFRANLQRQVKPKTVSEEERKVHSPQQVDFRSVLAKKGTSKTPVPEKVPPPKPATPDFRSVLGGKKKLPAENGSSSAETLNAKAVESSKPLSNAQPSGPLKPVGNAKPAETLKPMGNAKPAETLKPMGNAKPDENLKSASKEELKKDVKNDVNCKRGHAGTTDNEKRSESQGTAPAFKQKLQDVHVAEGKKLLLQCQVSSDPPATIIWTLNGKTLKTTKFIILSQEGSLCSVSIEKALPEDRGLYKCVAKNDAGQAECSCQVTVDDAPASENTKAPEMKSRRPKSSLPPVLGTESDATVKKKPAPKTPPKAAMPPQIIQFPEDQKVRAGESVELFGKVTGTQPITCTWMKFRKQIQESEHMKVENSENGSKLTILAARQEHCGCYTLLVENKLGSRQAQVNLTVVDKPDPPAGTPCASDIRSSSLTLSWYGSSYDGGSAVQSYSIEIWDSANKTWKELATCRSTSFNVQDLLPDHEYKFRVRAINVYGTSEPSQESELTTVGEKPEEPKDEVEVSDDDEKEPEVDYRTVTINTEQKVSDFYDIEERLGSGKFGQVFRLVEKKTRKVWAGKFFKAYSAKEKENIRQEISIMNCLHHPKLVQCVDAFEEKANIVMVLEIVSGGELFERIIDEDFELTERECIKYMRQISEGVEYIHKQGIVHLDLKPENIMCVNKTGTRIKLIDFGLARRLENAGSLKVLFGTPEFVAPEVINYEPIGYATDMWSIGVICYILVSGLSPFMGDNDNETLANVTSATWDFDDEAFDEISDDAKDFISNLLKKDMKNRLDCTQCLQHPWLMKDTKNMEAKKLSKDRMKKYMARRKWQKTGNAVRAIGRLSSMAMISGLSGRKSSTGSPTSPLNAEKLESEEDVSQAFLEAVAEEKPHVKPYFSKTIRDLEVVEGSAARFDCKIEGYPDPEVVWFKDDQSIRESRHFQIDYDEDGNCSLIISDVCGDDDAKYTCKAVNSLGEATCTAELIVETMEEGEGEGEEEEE

[6] = target: T2, Serine/threonine-protein kinase Nek3 (Homo sapiens) (UniProt P51956); assay: Inhibition of human NEK3 assessed as enzyme activity at 1 uM using myelin basic protein as substrate preincubated for 20 mins followed by [gamma-33P]-ATP addition and measured after 120 mins by radiometric Hot-SpotSM Kinase assay relative to control
T2 sequence (whole entry): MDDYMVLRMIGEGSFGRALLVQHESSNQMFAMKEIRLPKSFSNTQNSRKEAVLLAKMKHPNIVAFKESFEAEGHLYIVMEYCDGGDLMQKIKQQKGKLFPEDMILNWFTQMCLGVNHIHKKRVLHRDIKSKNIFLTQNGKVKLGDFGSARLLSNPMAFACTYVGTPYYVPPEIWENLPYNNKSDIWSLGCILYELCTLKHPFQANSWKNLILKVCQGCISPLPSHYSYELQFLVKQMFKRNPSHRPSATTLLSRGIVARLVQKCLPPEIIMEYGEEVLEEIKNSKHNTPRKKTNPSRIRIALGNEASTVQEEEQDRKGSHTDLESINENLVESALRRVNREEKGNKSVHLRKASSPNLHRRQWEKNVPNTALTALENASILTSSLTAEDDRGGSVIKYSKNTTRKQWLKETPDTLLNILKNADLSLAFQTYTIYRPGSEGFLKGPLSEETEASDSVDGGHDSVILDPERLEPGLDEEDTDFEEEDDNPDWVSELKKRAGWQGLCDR

[7] = target: Serine/threonine-protein kinase Nek7 (Homo sapiens) (UniProt Q8TDX7); assay: Inhibition of human NEK7 assessed as enzyme activity at 1 uM using casein as substrate preincubated for 20 mins followed by [gamma-33P]-ATP addition and measured after 120 mins by radiometric Hot-SpotSM Kinase assay relative to control
Chain of Serine/threonine-protein kinase Nek7 (Homo sapiens) (Q8TDX7 whole entry, looked up): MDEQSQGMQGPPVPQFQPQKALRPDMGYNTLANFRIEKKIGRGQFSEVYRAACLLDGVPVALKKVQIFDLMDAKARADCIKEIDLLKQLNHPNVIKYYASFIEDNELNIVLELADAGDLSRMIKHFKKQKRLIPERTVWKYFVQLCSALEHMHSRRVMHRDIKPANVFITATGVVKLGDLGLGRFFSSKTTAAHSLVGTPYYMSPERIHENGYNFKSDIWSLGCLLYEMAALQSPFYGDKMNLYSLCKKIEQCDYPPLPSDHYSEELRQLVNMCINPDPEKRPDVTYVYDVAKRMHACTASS

[8] = target: Protein kinase C delta type (Homo sapiens) (UniProt Q05655); assay: Inhibition of human PKCd assessed as enzyme activity at 1 uM using ERMRPRKRQGSVRRRV as substrate preincubated for 20 mins followed by [gamma-33P]-ATP addition and measured after 120 mins by radiometric Hot-SpotSM Kinase assay relative to control
Chain of Protein kinase C delta type (Homo sapiens) (Q05655 whole entry, looked up): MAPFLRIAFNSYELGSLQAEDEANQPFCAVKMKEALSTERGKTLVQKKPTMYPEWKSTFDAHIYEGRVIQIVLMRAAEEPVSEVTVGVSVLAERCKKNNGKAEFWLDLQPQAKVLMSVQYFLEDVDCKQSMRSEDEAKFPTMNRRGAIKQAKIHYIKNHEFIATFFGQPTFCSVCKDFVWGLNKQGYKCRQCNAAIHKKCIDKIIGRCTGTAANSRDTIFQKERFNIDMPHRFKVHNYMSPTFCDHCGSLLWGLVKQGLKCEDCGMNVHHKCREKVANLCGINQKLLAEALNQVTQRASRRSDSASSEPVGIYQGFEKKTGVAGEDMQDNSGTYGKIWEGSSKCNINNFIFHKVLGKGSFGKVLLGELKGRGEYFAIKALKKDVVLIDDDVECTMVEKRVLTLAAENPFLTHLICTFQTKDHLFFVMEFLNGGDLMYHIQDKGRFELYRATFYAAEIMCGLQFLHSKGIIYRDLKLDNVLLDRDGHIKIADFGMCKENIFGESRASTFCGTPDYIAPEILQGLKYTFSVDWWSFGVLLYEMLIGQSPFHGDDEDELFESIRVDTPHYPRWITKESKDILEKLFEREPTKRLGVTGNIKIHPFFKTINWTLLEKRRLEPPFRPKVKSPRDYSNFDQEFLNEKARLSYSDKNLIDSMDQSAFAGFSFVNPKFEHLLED

[9] = target: Receptor-interacting serine/threonine-protein kinase 2 (Homo sapiens) (UniProt O43353); assay: Inhibition of human RIPK2 assessed as enzyme activity at 1 uM using myelin basic protein as substrate preincubated for 20 mins followed by [gamma-33P]-ATP addition and measured after 120 mins by radiometric Hot-SpotSM Kinase assay relative to control
Chain of Receptor-interacting serine/threonine-protein kinase 2 (Homo sapiens) (O43353 whole entry): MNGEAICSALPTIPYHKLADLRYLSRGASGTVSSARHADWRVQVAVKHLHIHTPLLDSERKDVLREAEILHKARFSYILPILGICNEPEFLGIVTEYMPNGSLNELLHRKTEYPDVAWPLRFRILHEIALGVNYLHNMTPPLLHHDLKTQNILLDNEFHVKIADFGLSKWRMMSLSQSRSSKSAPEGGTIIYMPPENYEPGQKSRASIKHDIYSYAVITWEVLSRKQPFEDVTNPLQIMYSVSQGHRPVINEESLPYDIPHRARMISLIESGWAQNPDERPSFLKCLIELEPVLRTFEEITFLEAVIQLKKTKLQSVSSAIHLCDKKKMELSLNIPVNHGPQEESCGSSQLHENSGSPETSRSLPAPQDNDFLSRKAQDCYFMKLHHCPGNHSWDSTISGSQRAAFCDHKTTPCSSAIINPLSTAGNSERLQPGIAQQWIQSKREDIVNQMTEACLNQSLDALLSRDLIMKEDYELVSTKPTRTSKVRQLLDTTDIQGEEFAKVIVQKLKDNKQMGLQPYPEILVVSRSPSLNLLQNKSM

| SMILES | Activity [1] | Activity [2] | Activity [3] | Activity [4] | Activity [5] | Activity [6] | Activity [7] | Activity [8] | Activity [9] |
| --- | --- | --- | --- | --- | --- | --- | --- | --- | --- |
| CC[C@H](Nc1ncnc2[nH]cnc12)c1nc2cccc(F)c2c(=O)n1-c1ccccc1 | 96.5% | 89.7% | 91.9% | 100% | 96.1% | 93.9% | 97.3% | 95.2% | 96.5% |
| CC(C)Oc1ccc(-c2nn([C@@H](C)c3oc4ccc(F)cc4c(=O)c3-c3cccc(F)c3)c3ncnc(N)c23)cc1F [UMBRALISIB] | 100% | 88.7% | 95.9% | 94.4% | 92.4% | 101% | 85.4% | 104% | 94.2% |
| C[C@H](Nc1ncnc2nc[nH]c12)c1cc2cccc(Cl)c2c(=O)n1-c1ccccc1 | 97.2% | 93.4% | 92% | 97.2% | 91.7% | 98.5% | 100% | 93.9% | 92.2% |
